Reference: patent publication US20040029910A1, “Protoberberine derivatives which inhibit activity of the mitogen-activated protein kinase” (priority 2000, published 2004)

Key:
Wis1 kinase = biological target: T1, Wis1 kinase (Schizosaccharomyces pombe, UniProt P33886); test: Wis1 kinase activity and autophosphorylation ([γ-32P]ATP, SDS-PAGE, FIG. 2); type: biochemical; conditions: purified GST-Wis1, kinase reaction 30° C. 30 minutes, autophosphorylation also measured
T1 construct: The genes wis1 and spc1 were cloned into the pRep1 vector containing nmt1 promoter; made in house; host or cells: Schizosaccharomyces pombe KGY246 (pRep1 vector, nmt1 promoter)
T1 sequence (P33886 1-605): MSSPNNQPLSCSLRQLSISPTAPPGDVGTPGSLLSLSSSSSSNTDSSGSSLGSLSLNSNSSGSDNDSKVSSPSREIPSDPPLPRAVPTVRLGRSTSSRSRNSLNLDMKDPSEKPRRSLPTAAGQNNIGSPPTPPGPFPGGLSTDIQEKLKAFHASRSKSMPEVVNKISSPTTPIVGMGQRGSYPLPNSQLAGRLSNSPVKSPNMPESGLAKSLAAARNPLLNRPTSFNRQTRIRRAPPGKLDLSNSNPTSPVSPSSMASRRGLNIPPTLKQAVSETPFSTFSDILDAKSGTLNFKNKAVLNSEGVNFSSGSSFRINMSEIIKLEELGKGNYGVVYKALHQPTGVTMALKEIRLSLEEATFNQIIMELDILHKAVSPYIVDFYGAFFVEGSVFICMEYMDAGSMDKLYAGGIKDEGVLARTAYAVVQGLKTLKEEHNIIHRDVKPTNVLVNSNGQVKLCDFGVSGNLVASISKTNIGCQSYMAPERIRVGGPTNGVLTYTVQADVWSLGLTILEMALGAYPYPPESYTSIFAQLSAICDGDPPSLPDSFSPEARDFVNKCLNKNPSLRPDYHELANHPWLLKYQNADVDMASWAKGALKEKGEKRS
Protocol: The genes wis1 and spc1 were cloned into the pRep1 vector containing nmt1 promoter of which expression was inhibited by thiamin in the medium and able to tag GST. The KGY246 cells, wild type Schizosaccharomyces pombe cells were transformed with this plasmid. The expression of Wis1 and Spc1 kinase tagged with GST was induced by the cultivation of the transformed cells in MM^AU medium containing 0.4 mM thiamin followed by cultivation to exponential phase(5×10^6 cells) for about 20 hours in 100 mL of MM^AU medium in which thiamin was withdrawn. After osmotic shock(0.6M KCl) and oxidative stress were given to the cells expressing Wis1 and Spc1 tagged with GST for 25 minutes, cells were recovered at 4° C., washed with ice-cold PBS/NaF(50 mM)/NaN3(1 mM) buffer and HB buffer(25 mM HEPES, pH 7.5, 60 mM β-glycerophosphate, 15 mM EGTA, 0.1 mM Na vanadate, 0.1% triton and hydrolyzed using glass bead and bead beater purchased from Sigma. The supernatant of hydrolyzed cells was incubated with 100 mM NaCl for salting-out to remove unnecessary proteins. After the supernatant was incubated with 0.045 g/ml GST beads for 1.5 hours, proteins not bound to GST beads were removed. Purified Wis1 and Spc1 kinases were separated on 7% SDS-PAGE and the degree of purification was confirmed by western blotting using GST antibody.
Before Wis1 and Spc1 kinases purified in example 4 were analyzed, they were pre-incubated in analyzing buffer of kinase (50 mM Tris-Cl pH7.4, 20 mM MgCl2, 5 mM EGTA, 2 mM Na vanadate, 1 mM DTT). The kinase reaction was performed at 30° C. for 30 minutes in the presence of 1 mg/ml myelin basic protein(MBP), 1 mM ATP and 20 uCi of [γ-^32p]ATP and then terminated by adding SDS sample buffer and heating at 90° C. for 5 minutes. The reaction mixtures were separated on SDS-polyacrylamide gel electrophoresis. After fixation with 10% acetic acid: 10% methanol and drying, the gel was exposed on X-ray film. When Wis1 is activated by stimulus, it also activates autophosphorylation. Therefore, the degree of Wis1 autophosphorylation was also measured.

KGY246 (wild type) = test: Growth (cell number) of wild type strain KGY246; type: cell-based, Schizosaccharomyces pombe
Protocol: To investigate the effect of protoberberine derivatives on the growth of cells, the cells of each strain were cultured in rich medium YE^AU to exponential phase(5×10^7 cells/mL). These cells were transferred to YE^AU medium and cultured for 12 hours. Then cell number was measured every 3 hours.

Spc1 kinase = biological target: T2, Spc1 kinase (Schizosaccharomyces pombe, UniProt Q09892); test: Spc1 kinase activity, myelin basic protein substrate ([γ-32P]ATP, SDS-PAGE, FIG. 3); type: biochemical; conditions: purified GST-Spc1, myelin basic protein as substrate
T2 construct: The genes wis1 and spc1 were cloned into the pRep1 vector containing nmt1 promoter; made in house; host or cells: Schizosaccharomyces pombe KGY246 (pRep1 vector, nmt1 promoter)
T2 sequence (Q09892 1-349): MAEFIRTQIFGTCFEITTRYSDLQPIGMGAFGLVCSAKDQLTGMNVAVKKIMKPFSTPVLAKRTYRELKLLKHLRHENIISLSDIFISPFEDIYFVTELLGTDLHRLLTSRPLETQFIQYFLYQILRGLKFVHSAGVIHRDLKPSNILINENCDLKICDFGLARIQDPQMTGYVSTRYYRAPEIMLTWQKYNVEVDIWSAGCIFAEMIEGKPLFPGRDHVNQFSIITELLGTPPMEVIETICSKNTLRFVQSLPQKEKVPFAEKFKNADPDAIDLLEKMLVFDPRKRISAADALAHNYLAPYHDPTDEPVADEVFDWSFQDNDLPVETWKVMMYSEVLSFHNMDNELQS
Protocol: The genes wis1 and spc1 were cloned into the pRep1 vector containing nmt1 promoter of which expression was inhibited by thiamin in the medium and able to tag GST. The KGY246 cells, wild type Schizosaccharomyces pombe cells were transformed with this plasmid. The expression of Wis1 and Spc1 kinase tagged with GST was induced by the cultivation of the transformed cells in MM^AU medium containing 0.4 mM thiamin followed by cultivation to exponential phase(5×10^6 cells) for about 20 hours in 100 mL of MM^AU medium in which thiamin was withdrawn. […]
Before Wis1 and Spc1 kinases purified in example 4 were analyzed, they were pre-incubated in analyzing buffer of kinase (50 mM Tris-Cl pH7.4, 20 mM MgCl2, 5 mM EGTA, 2 mM Na vanadate, 1 mM DTT). […] Therefore, the degree of Wis1 autophosphorylation was also measured.

| SMILES | inhibition of Wis1 kinase activity (in words) (Wis1 kinase) | cell number (KGY246 (wild type); Table 2, KGY246, time 14) | cell number (KGY246 (wild type); Table 2, KGY246, time 17) | cell number (KGY246 (wild type); Table 2, KGY246, time 20) | cell number (KGY246 (wild type); Table 2, KGY246, time 23) | inhibition of Spc1 kinase activity (in words) (Spc1 kinase) |
| --- | --- | --- | --- | --- | --- | --- |
| COc1ccc2c(Cc3ccc(O[Si](C)(C)C(C)(C)C)cc3)c3[n+](cc2c1OC)CCc1cc2c(cc1-3)OCO2.[Cl-] [13-(4-(t-butyldimethylsilyloxy)benzyl)berberine chloride] | directly inhibited | 20 | 19 | 22 | 16 |  |
| COc1ccc2c(Cc3ccc(C(C)(C)C)cc3)c3[n+](cc2c1OC)CCc1cc2c(cc1-3)OCO2.[Cl-] [13-(4-t-butylbenzyl)berberine chloride] | directly inhibited |  |  |  |  |  |
| CCCOc1cc2c(cc1OCCC)-c1cc3ccc(OCCC)c(OCCC)c3c[n+]1CC2.[I-] [2,3,9,10-tetrapropoxyprotoberberine iodide] |  |  |  |  |  | directly inhibited |
